Legend:
narkotisierten Ratte = assay: Blood pressure lowering in the anaesthetised rat after angiotensin I pressor stimulus; assay type: in vivo; conditions: 0,3 mg/kg i.v.; blood pressure raised beforehand with 0,1 mg/kg Angiotensin I i.v.; long lasting
Protocol: So erzeugt das N-[N-(3-Phenyl-2-S-mercaptopropanoyl)-S-alanyl]-S-prolin an der narkotisierten Ratte in einer Dosierung von 0,3 mg/kg i.v. eine lang anhaltende Blutdrucksenkung von 67 %, wenn man vorher durch eine i.v.-Gabe von 0,1 mg/kg Angiotensin I den Blutdruck steigert.

Kaninchen = assay: Blood pressure test in the rabbit (carotid artery); assay type: in vivo; conditions: 1 mg/kg i.v.; blood pressure from the carotid
Protocol: Am Kaninchen (Blutdruckversuch aus der Carotis) wird nach Gabe von 1 mg/kg der Substanz, i.v., eine Blutdrucksenkung von 37 mm beobachtet.

SMILES: CC(NC(=O)C(S)Cc1ccccc1)C(=O)N1CCCC1C(=O)O (centres unmarked) [Beispiel 1, N-[N-(3-Phenyl-2-S-mercatopropanoyl)-S-alanyl]-S-prolin]
- Blutdrucksenkung (narkotisierten Ratte): 67%
- Blutdrucksenkung (Kaninchen): 37 mm
